In patent US12527779B2, “Prostaglandin E2 (PGE2) EP4 receptor antagonists” (Domain Therapeutics, priority 2019, dated 2026):
Counter-ions that a name gives are not always drawn.

Each compound was assayed against T1, human EP4 (hEP4) receptor (Homo sapiens, UniProt P35408) (assay: In vitro human EP4 functional antagonist activity using BRET biosensors (cAMP EPAC biosensor, TCS2510 stimulation)). Conditions: antagonist activity vs EC60 TCS2510, hEP4 in HEK-293 T cells.
T1 construct: expressed in transfected cells; host or cells: HEK-293 T cells, transient co-transfection with polyethylenimine
Format: cell-based
Method: Examples of the present invention were tested successively for their agonist and antagonist activities on human EP4 (hEP4) receptor transiently over-expressed in HEK-293 T cells. […] The assay used to measure compound activity is based on the BRET technology. The unimolecular cAMP biosensor used to detect intracellular cAMP levels following GPCR stimulation consists of the EPAC protein fused to N- and C-terminal of Luciferase and GFP respectively.
Cell Culture and Transfection: HEK-293 T cells are maintained in Dulbecco's Modified Eagle's Medium supplemented with 10% Foetal Calf Serum, 1% Penicillin/Streptomycin at 37° C./5% CO2. Cells are co-transfected using polyethylenimine (25 kDa linear) with two DNA plasmids encoding hEP4, EPAC fused to luciferase (BRET donor) and to GFP (BRET acceptor). After transfection, cells are cultured (40,000 cells per well) for 48 h at 37° C./5% CO2.
BRET assay: Receptor activity is detected by changes in BRET signal. On the day of the assay, cells are rinsed and incubated in assay buffer (1.8 mM CaCl2, 1 mM MgCl2, 2.7 mM KCl, 137 mM NaCl, 0.4 mM NaH2PO4, 5.5 mM D-Glucose, 11.9 mM NaHCO3, 25 mM Hepes). Then, plates are equilibrated 1 h at 22° C. before adding compounds. Compounds and luciferase substrate are added to the cells using an automated device (Freedom Evo®, Tecan) and BRET readings are collected on EnVision (PerkinElmer) with specific filters (410 nm BW 80 nm, 515 nm BW 30 nm). Agonist and antagonist activities of compounds are consecutively evaluated on the same cell plate. Agonist activity is first measured after 5 min incubation with compound alone on the cells. Then, cells are stimulated by an EC60 TCS2510 concentration and luminescence is recorded for additional 10 min. EC60 TCS2510 concentration is the concentration giving 60% of the maximal TCS2510 response. Agonist or antagonist activities are evaluated in comparison to basal signals evoked by assay buffer or EC60 TCS2510 alone, respectively.
For IC50 determination, a dose-response test is performed using 10 concentrations (ranging over 4.5 logs) of each compound. Dose-response curves are fitted using the sigmoidal dose-response (variable slope) analysis in GraphPad Prism software (GraphPad Software) and IC50 of antagonist activity is calculated. Dose-response experiments are performed in duplicate, in two independent experiments. IC50 values are categorized as following: A: IC50<0.1 μM; B: IC50<1 μM.

T1 sequence (P35408 whole entry): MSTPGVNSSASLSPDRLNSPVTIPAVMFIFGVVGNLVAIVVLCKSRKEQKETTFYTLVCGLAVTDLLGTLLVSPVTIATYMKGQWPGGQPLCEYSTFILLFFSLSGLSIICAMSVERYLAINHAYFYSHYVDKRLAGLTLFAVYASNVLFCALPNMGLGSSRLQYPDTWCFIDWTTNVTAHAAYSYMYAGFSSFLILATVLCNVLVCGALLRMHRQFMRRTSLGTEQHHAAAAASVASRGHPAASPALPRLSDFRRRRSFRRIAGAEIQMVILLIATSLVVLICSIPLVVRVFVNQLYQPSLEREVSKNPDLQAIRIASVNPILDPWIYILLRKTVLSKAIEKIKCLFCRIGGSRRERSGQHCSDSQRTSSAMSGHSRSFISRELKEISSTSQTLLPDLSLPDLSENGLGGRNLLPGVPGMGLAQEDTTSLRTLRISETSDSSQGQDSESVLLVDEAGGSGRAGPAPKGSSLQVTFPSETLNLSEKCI

Row | SMILES | IC50
1 | C[C@H](NC(=O)C1(NCCOc2cccc(Cl)c2)CCCC1)C12CC(C(=O)O)(C1)C2 [Example 64, 3-[(1S)-1-[[1-[2-(3-Chlorophenoxy)ethylamino]cyclopentanecarbonyl]amino]ethyl]bicyclo[1.1.1]pentane-1-carboxylic acid, hydrochloride] | < 1000 nM
2 | C[C@H](NC(=O)C1(NCCOc2ccccc2)CCC(F)(F)CC1)c1ccc(C(=O)O)cc1 [Example 65, 4-[(1S)-1-[[4,4-Difluoro-1-(2-phenoxyethylamino)cyclohexanecarbonyl]amino]ethyl]benzoic acid, hydrochloride] | < 1000 nM
3 | C[C@H](NC(=O)C1(NCCOc2ccccc2)CCSCC1)c1ccc(C(=O)O)cc1 [Example 66, 4-[(1S)-1-[[4-(2-Phenoxyethylamino)tetrahydrothiopyran-4-carbonyl]amino]ethyl]benzoic acid] | < 100 nM
4 | C[C@H](NC(=O)C1(NCCOc2ccccc2)CC2(CCC2)C1)c1ccc(C(=O)O)cc1 [Example 68, 4-[(1S)-1-[[2-(2-Phenoxyethylamino)spiro[3.3]heptane-2-carbonyl]amino]ethyl]benzoic acid, hydrochloride] | < 1000 nM
5 | C[C@H](NC(=O)C1(NCCOc2ccccc2)CCC1)c1ccc(C(=O)O)cc1 [Example 69, 4-[(1S)-1-[[1-(2-Phenoxyethylamino)cyclobutanecarbonyl]amino]ethyl]benzoic acid, hydrochloride] | < 1000 nM
6 | C[C@H](NC(=O)C1(N(C)CCOc2ccccc2)CCCOC1)c1ccc(C(=O)O)cc1 (stereo partly drawn) [Example 73, 4-[(1S)-1-[[3-[Methyl(2-phenoxyethyl)amino]tetrahydropyran-3-carbonyl]amino]ethyl]benzoic acid, hydrochloride] | < 1000 nM
7 | C[C@H](NC(=O)C1(N(C)CCOc2ccccc2)CCOC1)c1ccc(C(=O)O)cc1 (stereo partly drawn) [Example 74, 4-[(1S)-1-[[3-[Methyl(2-phenoxyethyl)amino]tetrahydrofuran-3-carbonyl]amino]ethyl]benzoic acid, hydrochloride] | < 100 nM
8 | C[C@H](NC(=O)C1(N(C)CCOc2cccc(Cl)c2)CCOC1)c1ccc(C(=O)O)cc1 (stereo partly drawn) [Example 75, 4-[(1S)-1-[[3-[2-(3-Chlorophenoxy)ethyl-methyl-amino]tetrahydrofuran-3-carbonyl]amino]ethyl]benzoic acid, hydrochloride] | < 100 nM
9 | CN(CCOc1ccccc1)C1(C(=O)NC2(c3ccc(C(=O)O)cc3)CC2)CCOC1 (centres unmarked) [Example 76, 4-[1-[[3-[Methyl(2-phenoxyethyl)amino]tetrahydrofuran-3-carbonyl]amino]cyclopropyl]benzoic acid, hydrochloride] | < 1000 nM
10 | CN(CCOc1cccc(Cl)c1)C1(C(=O)NC2(c3ccc(C(=O)O)cc3)CC2)CCOC1 (centres unmarked) [Example 77, 4-[1-[[3-[2-(3-Chlorophenoxy)ethyl-methyl-amino]tetrahydrofuran-3-carbonyl]amino]cyclopropyl]benzoic acid, hydrochloride] | < 100 nM
11 | C[C@H](NC(=O)C1(CCCOc2ccccc2)CCOCC1)c1ccc(C(=O)O)cc1 [Example 81, 4-[(1S)-1-[[4-(3-Phenoxypropyl)tetrahydropyran-4-carbonyl]amino]ethy]benzoic Acid] | < 100 nM
12 | O=C(O)c1ccc(C2(NC(=O)C3(OCCOc4cccc(Cl)c4)CCOCC3)CC2)cc1 [Example 82, 4-[1-[[4-[2-(3-Chlorophenoxy)ethoxy]tetrahydropyran-4-carbonyl]amino]cyclopropyl]benzoic acid] | < 100 nM
13 | CCCC(C)COc1ccc(C2(C(=O)N[C@@H](C)c3ccc(C(=O)O)cc3)CCOCC2)cc1 (stereo partly drawn) [Example 84, 4-[(1S)-1-[[4-[4-(2-Methylpentoxy)phenyl]tetrahydropyran-4-carbonyl]amino]ethyl]benzoic acid] | < 1000 nM
14 | C[C@H](NC(=O)C1(c2ccc(OCCCc3ccccc3)cc2)CCOCC1)c1ccc(C(=O)O)cc1 [Example 92, 4-[(1S)-1-[[4-[4-(3-Phenylpropoxy)phenyl]tetrahydropyran-4-carbonyl]amino]ethyl]benzoic acid] | < 100 nM

Further lines, results first:

Row | IC50 | SMILES
15 | < 1000 nM | C[C@H](NC(=O)C1(c2ccc(OCc3ccccc3)cc2)CCOCC1)c1ccc(C(=O)O)cc1 [Example 88, 4-[(1S)-1-[[4-(4-Benzyloxyphenyl)tetrahydropyran-4-carbonyl]amino]ethyl]benzoic acid]
16 | < 1000 nM | C[C@H](NC(=O)C1(c2ccc(OCC3CCCCC3)cc2)CCOCC1)c1ccc(C(=O)O)cc1 [Example 89, 4-[(1S)-1-[[4-[4-(Cyclohexylmethoxy)phenyl]tetrahydropyran-4-carbonyl]amino]ethyl]benzoic acid]
17 | < 1000 nM | C[C@H](NC(=O)C1(c2ccc(OCC(F)(F)F)cc2)CCOCC1)c1ccc(C(=O)O)cc1 [Example 91, 4-[(1S)-1-[[4-[4-(2,2,2-Trifluoroethoxy)phenyl]tetrahydropyran-4-carbonyl]amino]ethyl]benzoic acid]
18 | < 1000 nM | C[C@H](NC(=O)C1(c2ccc(OCCc3ccccc3)cc2)CCOCC1)c1ccc(C(=O)O)cc1 [Example 94]
19 | < 1000 nM | C[C@H](NC(=O)C1(c2ccc(OCCC3CCCCC3)cc2)CCOCC1)c1ccc(C(=O)O)cc1 [Example 95, 4-[(1S)-1-[[4-[4-(2-Cyclohexylethoxy)phenyl]tetrahydropyran-4-carbonyl]amino]ethyl]benzoic acid]
20 | < 1000 nM | C[C@H](NC(=O)C1(c2ccc(OCc3cccnc3)cc2)CCOCC1)c1ccc(C(=O)O)cc1 [Example 96, 4-[(1S)-1-[[4-[4-(3-Pyridylmethoxy)phenyl]tetrahydropyran-4-carbonyl]amino]ethyl]benzoic acid]
21 | < 1000 nM | C[C@H](NC(=O)C1(c2cccc(OCC3CCCCC3)c2)CCOCC1)c1ccc(C(=O)O)cc1 [Example 97, 4-[(1S)-1-[[4-[3-(Cyclohexylmethoxy)phenyl]tetrahydropyran-4-carbonyl]amino]ethyl]benzoic acid]
22 | < 1000 nM | C[C@H](NC(=O)C1(c2cccc(OCC3CCOCC3)c2)CCOCC1)c1ccc(C(=O)O)cc1 [Example 98, 4-[(1S)-1-[[4-[3-(Tetrahydropyran-4-ylmethoxy)phenyl]tetrahydropyran-4-carbonyl]amino]ethyl]benzoic acid]
23 | < 1000 nM | C[C@H](NC(=O)C1(c2cccc(OCc3ccccc3)c2)CCOCC1)c1ccc(C(=O)O)cc1 [Example 99, 4-[(1S)-1-[[4-(3-Benzyloxyphenyl)tetrahydropyran-4-carbonyl]amino]ethyl]benzoic acid]
24 | < 1000 nM | C[C@H](NC(=O)C1(c2cccc(OC3CCCCC3)c2)CCOCC1)c1ccc(C(=O)O)cc1 [Example 100, 4-[(1S)-1-[[4-[3-(Cyclohexoxy)phenyl]tetrahydropyran-4-carbonyl]amino]ethyl]benzoic acid]
25 | < 1000 nM | C[C@H](NC(=O)C1(c2cccc(OCC3CC3)c2)CCOCC1)c1ccc(C(=O)O)cc1 [Example 101, 4-[(1S)-1-[[4-[3-(Cyclopropylmethoxy)phenyl]tetrahydropyran-4-carbonyl]amino]ethyl]benzoic acid]
26 | < 1000 nM | C[C@H](NC(=O)C1(c2cccc(OCC3CCCC3)c2)CCOCC1)c1ccc(C(=O)O)cc1 [Example 102, 4-[(1S)-1-[[4-[3-(Cyclopentylmethoxy)phenyl]tetrahydropyran-4-carbonyl]amino]ethyl]benzoic acid]
